Results on 46 compounds are retold here after ChEMBL document CHEMBL1833960, “Identification of 5,6-substituted 4-aminothieno[2,3-d]pyrimidines as LIMK1 inhibitors” (Bioorg Med Chem Lett, 2011).

Bounds are passed on as bounds.

Assay [1] deals with T1, LIM domain kinase 1 (Homo sapiens, UniProt P53667). The assay can be described thus: Inhibition of LIMK1 using cofilin-2 as substrate after 60 mins by Kinase-Glo assay. In general terms: In Kinase-Glo more light means more ATP remaining.
For assay [2], the target named is T1, LIM domain kinase 1. Put plainly: Inhibition of LIMK1 using cofilin-2 as substrate after 60 mins by TR-FRET assay. In general terms: In TR-FRET formats the signal depends on donor and acceptor labels being close together.

T1 sequence (P53667 whole entry, the tested form may be a part): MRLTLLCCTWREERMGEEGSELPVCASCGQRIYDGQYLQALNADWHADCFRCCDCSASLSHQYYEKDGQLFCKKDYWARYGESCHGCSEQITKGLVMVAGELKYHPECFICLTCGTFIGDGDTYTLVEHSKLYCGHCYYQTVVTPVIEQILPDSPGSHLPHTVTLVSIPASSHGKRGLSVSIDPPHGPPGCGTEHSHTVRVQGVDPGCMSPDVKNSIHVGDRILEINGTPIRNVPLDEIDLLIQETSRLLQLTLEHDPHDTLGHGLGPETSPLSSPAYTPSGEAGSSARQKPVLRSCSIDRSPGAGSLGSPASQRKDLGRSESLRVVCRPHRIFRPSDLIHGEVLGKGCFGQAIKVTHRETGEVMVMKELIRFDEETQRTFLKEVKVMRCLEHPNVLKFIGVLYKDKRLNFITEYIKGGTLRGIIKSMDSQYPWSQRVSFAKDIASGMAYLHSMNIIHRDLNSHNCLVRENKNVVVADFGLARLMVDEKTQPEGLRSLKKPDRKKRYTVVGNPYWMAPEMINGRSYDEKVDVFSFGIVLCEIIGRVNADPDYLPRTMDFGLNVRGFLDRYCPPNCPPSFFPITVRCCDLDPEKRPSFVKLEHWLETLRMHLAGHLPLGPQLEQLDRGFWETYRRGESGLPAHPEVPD

Consider `CNc1ncnc2sc3c(c12)CCCC3`, for which the IC50 against LIM domain kinase 1 [1] and on LIM domain kinase 1 [2] was above 100 µM throughout.
Regarding `CC(Nc1ncnc2sc3c(c12)CCCC3)c1ccccc1` (stereo not given), the IC50 against LIM domain kinase 1 [1] and on LIM domain kinase 1 [2] was above 100 µM in each case.
For `c1ccc(CCNc2ncnc3sc4c(c23)CCCC4)cc1`, the IC50 against LIM domain kinase 1 [1] and against LIM domain kinase 1 [2] was above 100 µM throughout.
With `CSc1nc(N)c2c3c(sc2n1)CCCCC3`, the IC50 against LIM domain kinase 1 [1] and against LIM domain kinase 1 [2] was above 100 µM each time.
Turning to `Nc1ncnc2sc3c(c12)CCC3`, the IC50 against LIM domain kinase 1 [1] and against LIM domain kinase 1 [2] was 5.3 µM throughout.
Turning to `Nc1nc(-c2ccccc2)nc2sc3c(c12)CCCC3`, the IC50 against LIM domain kinase 1 [1] and against LIM domain kinase 1 [2] was above 100 µM throughout.
For the compound `Nc1ncnc2sc3c(c12)Cc1ccccc1-3`, the IC50 against LIM domain kinase 1 [1] and at LIM domain kinase 1 [2] was 11 µM throughout.
On to `Nc1ncnc2sc3c(c12)CCC(c1ccccc1)C3` (stereo not given), for which the IC50 against LIM domain kinase 1 [1] and on LIM domain kinase 1 [2] was above 20 µM throughout.
`Nc1ncnc2sc3c(c12)CCCC3`: the IC50 at LIM domain kinase 1 [1] and on LIM domain kinase 1 [2] was 4 µM in each case.
On to `Nc1ncnc2sc3c(c12)CCC(C(=O)O)C3` (stereo not given), for which the IC50 against LIM domain kinase 1 [1] and against LIM domain kinase 1 [2] was above 20 µM throughout.
Regarding `Nc1ncnc2sc3c(c12)CCc1ccccc1-3`, the IC50 on LIM domain kinase 1 [1] and at LIM domain kinase 1 [2] was 4.3 µM in each case.
As for `NC(=O)c1sc2ccccc2c1N`, half-maximal inhibition on LIM domain kinase 1 [1] (IC50) required 33 µM.
Turning to `Nc1ncnc2sc3c(c12)CCC(C(=O)NCc1ccccc1)C3` (stereo not given), the IC50 against LIM domain kinase 1 [1] and at LIM domain kinase 1 [2] was 8.6 µM each time.
Turning to `Nc1ncnc2sc3c(c12)CC1CC3C1`, the IC50 at LIM domain kinase 1 [1] and at LIM domain kinase 1 [2] was 1.8 µM in each case.
As to `Nc1ncnc2c1sc1ncccc12`, the IC50 (usually the point on the concentration scale where inhibition reaches its midpoint) against LIM domain kinase 1 [1] is 9 µM.
For the compound `NC(=O)C1CCc2c(sc3ncnc(N)c23)C1` (stereo not given), the IC50 against LIM domain kinase 1 [1] and against LIM domain kinase 1 [2] was 9.1 µM in each case.
Regarding `CC1(C)CCc2c(sc3ncnc(N)c23)C1`, the IC50 on LIM domain kinase 1 [1] and against LIM domain kinase 1 [2] was 2.8 µM in each case.
Turning to `CSc1nc(N)c2c3c(sc2n1)CCC3`, the IC50 against LIM domain kinase 1 [1] and at LIM domain kinase 1 [2] was above 100 µM each time.
Turning to `Cc1nc(N)c2c3c(sc2n1)CCCC3`, the IC50 against LIM domain kinase 1 [1] and against LIM domain kinase 1 [2] was above 100 µM throughout.
`Cn1c2ccccc2c2ncnc(N)c21` had an IC50 on LIM domain kinase 1 [1] of 4 µM.
In the case of `Cc1c(-c2ccccc2)sc2ncnc(N)c12`, the concentration for half-maximal inhibition (IC50) on LIM domain kinase 1 [1] and against LIM domain kinase 1 [2] was 17 µM each time.
On to `Nc1ncnc2sc3c(c12)CCN(Cc1ccccc1)C3`, for which the IC50 against LIM domain kinase 1 [1] and against LIM domain kinase 1 [2] was 0.66 µM each time.
Regarding `COc1ccc(Nc2ncnc3sc4c(c23)CCCC4)cc1`, the IC50 at LIM domain kinase 1 [1] and against LIM domain kinase 1 [2] was above 100 µM in each case.
Compound `Nc1ncnc2c1sc1cc(-c3ccccc3)ccc12` registered an IC50 against LIM domain kinase 1 [1] of 0.3 µM.
As to `CC1CCc2c(sc3ncnc(N)c23)C1` (stereo not given), the IC50 at LIM domain kinase 1 [1] and at LIM domain kinase 1 [2] was 18 µM throughout.
Take `Nc1ncnc2sc3c(c12)CCCCC3`: the IC50 on LIM domain kinase 1 [1] and against LIM domain kinase 1 [2] was 2.5 µM each time.
Take `Nc1nc(S)nc2sc3c(c12)CCCCC3`: the IC50 at LIM domain kinase 1 [1] and against LIM domain kinase 1 [2] was above 100 µM in each case.
Consider `Nc1ncnc2sc3c(c12)CCOC3`, for which the IC50 against LIM domain kinase 1 [1] and on LIM domain kinase 1 [2] was 3.5 µM throughout.
Compound `Nc1ncnc2c1sc1ccccc12` gave an IC50 against LIM domain kinase 1 [1] of 7 µM.
On the same count and under the same terms, to `NC(=O)c1sc2ncccc2c1N` belongs 37 µM.
Take `Nc1nc(SCC(=O)O)nc2sc3c(c12)CCCC3`: the IC50 against LIM domain kinase 1 [1] and against LIM domain kinase 1 [2] was above 100 µM each time.
Turning to `CC1(C)CCc2sc3ncnc(N)c3c21`, the IC50 against LIM domain kinase 1 [1] and on LIM domain kinase 1 [2] was 2.1 µM throughout.
Regarding `Cc1sc2ncnc(N)c2c1C`, the IC50 on LIM domain kinase 1 [1] and at LIM domain kinase 1 [2] was 4.4 µM in each case.
With `Nc1nc(=S)[nH]c2sc3c(c12)CCCC3`, the IC50 on LIM domain kinase 1 [1] and against LIM domain kinase 1 [2] was above 100 µM each time.
In turn, `Cn1c2cc(-c3ccccc3)ccc2c2ncnc(N)c21` returned an IC50 on LIM domain kinase 1 [1] of 0.26 µM.
`COc1ccc(-c2sc3ncnc(N)c3c2C)cc1OC`: the IC50 against LIM domain kinase 1 [1] and at LIM domain kinase 1 [2] was 3.2 µM in each case.
Take `CC1CCCc2sc3ncnc(N)c3c21` (stereo not given): the IC50 against LIM domain kinase 1 [1] and against LIM domain kinase 1 [2] was 2.7 µM throughout.
As to `CSc1nc(N)c2c3c(sc2n1)CCCC3`, the IC50 at LIM domain kinase 1 [1] and against LIM domain kinase 1 [2] was above 100 µM throughout.
On to `CC1(C)Cc2c(sc3ncnc(N)c23)CO1`, for which the IC50 at LIM domain kinase 1 [1] and against LIM domain kinase 1 [2] was 12.7 µM in each case.
Take `Nc1nc(-c2cccs2)nc2sc3c(c12)CCCC3`: the IC50 against LIM domain kinase 1 [1] and on LIM domain kinase 1 [2] was above 100 µM each time.
Take `Nc1ncnc2sc3c(c12)CCC(C(=O)N1CCOCC1)C3` (stereo not given): the IC50 on LIM domain kinase 1 [1] and against LIM domain kinase 1 [2] was 9.5 µM in each case.
As to `CN(C)c1ncnc2sc3c(c12)CCCC3`, the IC50 against LIM domain kinase 1 [1] and against LIM domain kinase 1 [2] was above 100 µM throughout.
Turning to `CCOC(=O)C1CCc2c(sc3ncnc(N)c23)C1` (stereo not given), the IC50 against LIM domain kinase 1 [1] and on LIM domain kinase 1 [2] was 2.3 µM each time.
Consider `NCCNc1ncnc2sc3c(c12)CCCC3`, for which the IC50 at LIM domain kinase 1 [1] and against LIM domain kinase 1 [2] was above 100 µM throughout.
`c1nc(N2CCCCC2)c2c3c(sc2n1)CCCC3`: the IC50 against LIM domain kinase 1 [1] and on LIM domain kinase 1 [2] was above 100 µM each time.
Turning to `OCCNc1ncnc2sc3c(c12)CCCC3`, the IC50 against LIM domain kinase 1 [1] and against LIM domain kinase 1 [2] was above 100 µM in each case.
